{"source": "patent US9434711B2", "about": "(Janssen Pharmaceutica, NV, priority 2007, dated 2016)", "molecular_target": "canine TRPM8 (Canis lupus familiaris, UniProt Q1A7N1)", "sequence (Q1A7N1 1-1104)": "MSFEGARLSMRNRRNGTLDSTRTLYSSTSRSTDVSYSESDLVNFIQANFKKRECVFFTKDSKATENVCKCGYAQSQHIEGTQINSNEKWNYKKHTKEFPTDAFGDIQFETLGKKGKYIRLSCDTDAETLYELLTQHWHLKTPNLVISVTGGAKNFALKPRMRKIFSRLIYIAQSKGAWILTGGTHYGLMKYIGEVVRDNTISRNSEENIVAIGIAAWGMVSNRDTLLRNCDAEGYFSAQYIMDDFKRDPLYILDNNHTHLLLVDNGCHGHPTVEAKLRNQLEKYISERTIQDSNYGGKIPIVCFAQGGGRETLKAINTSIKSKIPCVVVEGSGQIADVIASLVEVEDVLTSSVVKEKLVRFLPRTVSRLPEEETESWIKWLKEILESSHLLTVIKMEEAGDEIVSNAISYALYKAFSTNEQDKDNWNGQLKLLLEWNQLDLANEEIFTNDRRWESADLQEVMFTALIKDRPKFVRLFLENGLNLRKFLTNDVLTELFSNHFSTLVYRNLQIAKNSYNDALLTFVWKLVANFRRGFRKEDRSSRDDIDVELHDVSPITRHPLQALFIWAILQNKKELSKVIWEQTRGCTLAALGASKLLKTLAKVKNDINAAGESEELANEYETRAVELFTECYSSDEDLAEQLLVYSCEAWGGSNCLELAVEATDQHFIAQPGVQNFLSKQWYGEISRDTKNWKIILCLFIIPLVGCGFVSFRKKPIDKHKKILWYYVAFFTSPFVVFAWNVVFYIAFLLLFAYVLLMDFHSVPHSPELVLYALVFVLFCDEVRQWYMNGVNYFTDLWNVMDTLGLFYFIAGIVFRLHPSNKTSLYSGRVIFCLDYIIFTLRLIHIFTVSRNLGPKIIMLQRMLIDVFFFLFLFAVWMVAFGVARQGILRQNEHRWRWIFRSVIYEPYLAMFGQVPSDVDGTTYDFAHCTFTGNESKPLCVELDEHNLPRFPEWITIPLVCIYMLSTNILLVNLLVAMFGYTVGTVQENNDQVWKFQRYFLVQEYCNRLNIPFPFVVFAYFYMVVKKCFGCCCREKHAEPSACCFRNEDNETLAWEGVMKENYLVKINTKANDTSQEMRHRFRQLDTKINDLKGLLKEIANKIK", "test": "In Vitro Canine TRPM8 Functional Assay (Ca2+ fluorescence, icilin activation)", "assay_type": "cell-based", "conditions": "for IC50: HEK293 cells stably expressing canine TRPM8, icilin activation, eight-point dose-response, read-out: IC50; for inhibition at 0.2 µM: compound at 0.2 μM, read-out: % Inh @ 0.2; for inhibition at 0.2 µM / inhibition at 0.5 µM: canine TRPM8, icilin activation; for inhibition at 0.5 µM: compound at 0.5 μM, read-out: % Inh @ 0.5", "method_in_brief": "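HEK293 cells stably expressing canine TRPM8 were loaded with Calcium 3 dye (35 min at 37 °C, then 25 min at room temperature). Compound was added and Ca2+ fluorescence was read for 5 min before icilin at a concentration giving about 80% maximal response. EC50/IC50 came from eight-point dose-response curves, quadruplicate wells.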"}
{"smiles": "COC(=O)c1ccc(S(=O)(=O)N(Cc2ccc(F)c(C(F)(F)F)c2)c2sc3ccccc3c2C)cc1", "note": "[Compound 138, N-(3-Methyl-benzo[b]thiophen-2-yl)-N-(4-fluoro-3-trifluoromethyl-benzyl)-4-carbomethoxy-benzenesulfonamide]", "values": [{"measurement": "IC50", "result": 13, "unit": "nM"}, {"measurement": "inhibition at 0.2 µM", "result": 83, "unit": "%"}]}
{"smiles": "COC(=O)c1ccccc1S(=O)(=O)N(Cc1ccc(F)c(C(F)(F)F)c1)c1cc2ccccc2s1", "note": "[Compound 139, N-(Benzo[b]thiophen-2-yl)-N-(4-fluoro-3-trifluoromethyl-benzyl)-2-carbomethoxy-benzenesulfonamide]", "values": [{"measurement": "IC50", "result": 62, "unit": "nM"}, {"measurement": "inhibition at 0.2 µM", "result": 91, "unit": "%"}]}
{"smiles": "O=S(=O)(c1ccccc1)N(Cc1ccc(F)cc1)c1sc2ccccc2c1Br", "note": "[Compound 140, N-(3-Bromo-benzo[b]thiophen-2-yl)-N-(4-fluoro-benzyl)-benzenesulfonamide]", "values": [{"measurement": "IC50", "result": 2, "unit": "nM"}, {"measurement": "inhibition at 0.5 µM", "result": 98, "unit": "%"}]}
{"smiles": "COc1ccc2c(Br)c(N(Cc3ccc(F)c(F)c3)S(=O)(=O)c3cccnc3)sc2c1", "note": "[Compound 141, N-(3-Bromo-6-methoxy-benzo[b]thiophen-2-yl)-N-(3,4-difluoro-benzyl)-pyridin-3-yl-sulfonamide]", "values": [{"measurement": "inhibition at 0.2 µM", "result": 18, "unit": "%"}]}
{"smiles": "COc1cccc2cc(N(Cc3ccc(F)c(F)c3)S(=O)(=O)c3ccccc3)sc12", "note": "[Compound 142, N-(3,4-Difluoro-benzyl)-N-(7-methoxy-benzo[b]thiophen-2-yl)-benzenesulfonamide]", "values": [{"measurement": "inhibition at 0.5 µM", "result": 60, "unit": "%"}]}
{"smiles": "COc1cccc2c(Cl)c(N(Cc3ccc(F)c(F)c3)S(=O)(=O)c3ccccc3)sc12", "note": "[Compound 143, N-(3-Chloro-7-methoxy-benzo[b]thiophen-2-yl)-N-(3,4-difluoro-benzyl)-benzenesulfonamide]", "values": [{"measurement": "inhibition at 0.5 µM", "result": 48, "unit": "%"}]}
{"smiles": "COc1c(Cl)ccc2c(Cl)c(N(Cc3ccc(F)c(F)c3)S(=O)(=O)c3ccccc3)sc12", "note": "[Compound 144, N-(3,6-Dichloro-7-methoxy-benzo[b]thiophen-2-yl)-N-(3,4-difluoro-benzyl)-benzenesulfonamide]", "values": [{"measurement": "inhibition at 0.5 µM", "result": 62, "unit": "%"}]}
{"smiles": "O=S(=O)(c1ccccc1)N(Cc1ccc(F)c(F)c1)c1cc2cccnc2s1", "note": "[Compound 147, N-(3,4-Difluoro-benzyl)-N-thieno[2,3-b]pyridin-2-yl-benzenesulfonamide]", "values": [{"measurement": "IC50", "result": 78.2, "unit": "nM"}, {"measurement": "inhibition at 0.5 µM", "result": 96, "unit": "%"}]}
{"smiles": "Cn1cnc(S(=O)(=O)N(Cc2ccc(F)c(F)c2)c2sc3ccccc3c2Br)c1", "note": "[Compound 150, N-(3-Bromo-benzo[b]thiophen-2-yl)-N-(3,4-difluoro-benzyl)-1-methyl-1H-imidazole-4-sulfonamide]", "values": [{"measurement": "IC50", "result": 15.4, "unit": "nM"}, {"measurement": "inhibition at 0.5 µM", "result": 100, "unit": "%"}]}
{"smiles": "CS(=O)(=O)N(Cc1ccc(F)c(F)c1)c1sc2ccccc2c1Br", "note": "[Compound 151, N-(3-Bromo-benzo[b]thiophen-2-yl)-N-(3,4-difluoro-benzyl)-methanesulfonamide]", "values": [{"measurement": "IC50", "result": 16.7, "unit": "nM"}, {"measurement": "inhibition at 0.5 µM", "result": 96, "unit": "%"}]}
{"smiles": "CCS(=O)(=O)N(Cc1ccc(F)c(F)c1)c1sc2ccccc2c1Br", "note": "[Compound 152, N-(3-Bromo-benzo[b]thiophen-2-yl)-N-(3,4-difluoro-benzyl)-ethanesulfonamide]", "values": [{"measurement": "IC50", "result": 2.6, "unit": "nM"}, {"measurement": "inhibition at 0.5 µM", "result": 95, "unit": "%"}]}
{"smiles": "CCCS(=O)(=O)N(Cc1ccc(F)c(F)c1)c1sc2ccccc2c1Br", "note": "[Compound 153, N-(3-Bromo-benzo[b]thiophen-2-yl)-N-(3,4-difluoro-benzyl)-propane-1-sulfonamide]", "values": [{"measurement": "IC50", "result": 18.8, "unit": "nM"}, {"measurement": "inhibition at 0.5 µM", "result": 97, "unit": "%"}]}
{"smiles": "CCCCS(=O)(=O)N(Cc1ccc(F)c(F)c1)c1sc2ccccc2c1Br", "note": "[Compound 154, N-(3-Bromo-benzo[b]thiophen-2-yl)-N-(3,4-difluoro-benzyl)-butane-1-sulfonamide]", "values": [{"measurement": "IC50", "result": 36.2, "unit": "nM"}, {"measurement": "inhibition at 0.5 µM", "result": 96, "unit": "%"}]}
{"smiles": "O=S(=O)(c1cccc(F)c1)N(Cc1ccc(F)c(F)c1)c1sc2ccccc2c1Br", "note": "[Compound 155, N-(3-Bromo-benzo[b]thiophen-2-yl)-N-(3,4-difluoro-benzyl)-3-fluoro-benzenesulfonamide]", "values": [{"measurement": "IC50", "result": 4, "unit": "nM"}, {"measurement": "inhibition at 0.5 µM", "result": 99, "unit": "%"}]}
{"smiles": "O=S(=O)(c1ccc(C(F)(F)F)cc1)N(Cc1ccc(F)c(F)c1)c1sc2ccccc2c1Br", "note": "[Compound 156, N-(3-Bromo-benzo[b]thiophen-2-yl)-N-(3,4-difluoro-benzyl)-4-trifluoromethyl-benzenesulfonamide]", "values": [{"measurement": "inhibition at 0.5 µM", "result": 65, "unit": "%"}]}
{"smiles": "CS(=O)(=O)N(Cc1ccc(F)c(C(F)(F)F)c1)c1sc2ccccc2c1Br", "note": "[Compound 157, N-(3-Bromo-benzo[b]thiophen-2-yl)-N-(4-fluoro-3-trifluoromethyl-benzyl)-methanesulfonamide]", "values": [{"measurement": "IC50", "result": 14, "unit": "nM"}, {"measurement": "inhibition at 0.2 µM", "result": 100, "unit": "%"}]}
{"smiles": "O=S(=O)(c1ccccc1)N(Cc1ccc(Cl)cc1)c1sc2ccccc2c1Cl", "note": "[Compound 158, N-(3-Chloro-benzo[b]thiophen-2-yl)-N-(4-chloro-benzyl)-benzenesulfonamide]", "values": [{"measurement": "IC50", "result": 10.4, "unit": "nM"}, {"measurement": "inhibition at 0.5 µM", "result": 94, "unit": "%"}]}
{"smiles": "O=S(=O)(c1ccccc1)N(Cc1ccc(Cl)cc1)c1sc2ccccc2c1Br", "note": "[Compound 159, N-(3-Bromo-benzo[b]thiophen-2-yl)-N-(4-chloro-benzyl)-benzenesulfonamide]", "values": [{"measurement": "IC50", "result": 13.4, "unit": "nM"}, {"measurement": "inhibition at 0.5 µM", "result": 98, "unit": "%"}]}
{"smiles": "COc1ccccc1CN(c1sc2ccccc2c1Br)S(=O)(=O)c1ccccc1", "note": "[Compound 160, N-(3-Bromo-benzo[b]thiophen-2-yl)-N-(2-methoxy-benzyl)-benzenesulfonamide]", "values": [{"measurement": "IC50", "result": 35.8, "unit": "nM"}, {"measurement": "inhibition at 0.5 µM", "result": 97, "unit": "%"}]}
{"smiles": "COc1ccc(Br)cc1CN(c1sc2ccccc2c1Br)S(=O)(=O)c1ccccc1", "note": "[Compound 161, N-(3-Bromo-benzo[b]thiophen-2-yl)-N-(5-bromo-2-methoxy-benzyl)-benzenesulfonamide]", "values": [{"measurement": "IC50", "result": 55.4, "unit": "nM"}, {"measurement": "inhibition at 0.5 µM", "result": 95, "unit": "%"}]}
{"smiles": "COc1cccc(CN(c2sc3ccccc3c2Br)S(=O)(=O)c2ccccc2)c1", "note": "[Compound 162, N-(3-Bromo-benzo[b]thiophen-2-yl)-N-(3-methoxy-benzyl)-benzenesulfonamide]", "values": [{"measurement": "IC50", "result": 4.5, "unit": "nM"}, {"measurement": "inhibition at 0.5 µM", "result": 101, "unit": "%"}]}
{"smiles": "COc1ccc(Br)c(CN(c2sc3ccccc3c2Br)S(=O)(=O)c2ccccc2)c1", "note": "[Compound 163, N-(3-Bromo-benzo[b]thiophen-2-yl)-N-(2-bromo-5-methoxy-benzyl)-benzenesulfonamide]", "values": [{"measurement": "IC50", "result": 63.9, "unit": "nM"}, {"measurement": "inhibition at 0.5 µM", "result": 92, "unit": "%"}]}
{"smiles": "COc1ccc(CN(c2sc3ccccc3c2Br)S(=O)(=O)c2ccccc2)cc1", "note": "[Compound 164, N-(3-Bromo-benzo[b]thiophen-2-yl)-N-(4-methoxy-benzyl)-benzenesulfonamide]", "values": [{"measurement": "IC50", "result": 31.9, "unit": "nM"}, {"measurement": "inhibition at 0.5 µM", "result": 97, "unit": "%"}]}
{"smiles": "COc1ccc(CN(c2sc3ccccc3c2Br)S(=O)(=O)c2ccccc2)cc1Br", "note": "[Compound 165, N-(3-Bromo-benzo[b]thiophen-2-yl)-N-(3-bromo-4-methoxy-benzyl)-benzenesulfonamide]", "values": [{"measurement": "IC50", "result": 3.7, "unit": "nM"}, {"measurement": "inhibition at 0.5 µM", "result": 98, "unit": "%"}]}
{"smiles": "O=S(=O)(c1ccccc1)N(Cc1ccccc1F)c1sc2ccccc2c1Br", "note": "[Compound 166, N-(3-Bromo-benzo[b]thiophen-2-yl)-N-(2-fluoro-benzyl)-benzenesulfonamide]", "values": [{"measurement": "IC50", "result": 11.4, "unit": "nM"}, {"measurement": "inhibition at 0.5 µM", "result": 94, "unit": "%"}]}
{"smiles": "O=[N+]([O-])c1cccc(CN(c2sc3ccccc3c2Br)S(=O)(=O)c2ccccc2)c1", "note": "[Compound 167, N-(3-Bromo-benzo[b]thiophen-2-yl)-N-(3-nitro-benzyl)-benzenesulfonamide]", "values": [{"measurement": "inhibition at 0.5 µM", "result": 101, "unit": "%"}]}
{"smiles": "O=S(=O)(c1ccccc1)N(Cc1cccnc1)c1sc2ccccc2c1Br", "note": "[Compound 169, N-(3-Bromo-benzo[b]thiophen-2-yl)-N-(pyridin-3-ylmethyl)-benzenesulfonamide]", "values": [{"measurement": "IC50", "result": 21.4, "unit": "nM"}, {"measurement": "inhibition at 0.5 µM", "result": 98, "unit": "%"}]}
{"smiles": "O=S(=O)(c1ccccc1)N(Cc1ccncc1)c1sc2ccccc2c1Br", "note": "[Compound 170, N-(3-Bromo-benzo[b]thiophen-2-yl)-N-(pyridin-4-ylmethyl)-benzenesulfonamide]", "values": [{"measurement": "IC50", "result": 44.5, "unit": "nM"}, {"measurement": "inhibition at 0.5 µM", "result": 97, "unit": "%"}]}
{"smiles": "O=[N+]([O-])c1ccccc1CN(c1sc2ccccc2c1Br)S(=O)(=O)c1ccccc1", "note": "[Compound 171, N-(3-Bromo-benzo[b]thiophen-2-yl)-N-(2-nitro-benzyl)-benzenesulfonamide]", "values": [{"measurement": "IC50", "result": 19.3, "unit": "nM"}, {"measurement": "inhibition at 0.5 µM", "result": 100, "unit": "%"}]}
{"smiles": "O=S(=O)(c1ccccc1)N(Cc1ccccc1OC(F)(F)F)c1sc2ccccc2c1Br", "note": "[Compound 172, N-(3-Bromo-benzo[b]thiophen-2-yl)-N-(2-trifluoromethoxy-benzyl)-benzenesulfonamide]", "values": [{"measurement": "IC50", "result": 11.1, "unit": "nM"}, {"measurement": "inhibition at 0.5 µM", "result": 98, "unit": "%"}]}
{"smiles": "O=S(=O)(c1ccccc1)N(Cc1cccc(OC(F)(F)F)c1)c1sc2ccccc2c1Br", "note": "[Compound 173, N-(3-Bromo-benzo[b]thiophen-2-yl)-N-(3-trifluoromethoxy-benzyl)-benzenesulfonamide]", "values": [{"measurement": "IC50", "result": 8.4, "unit": "nM"}, {"measurement": "inhibition at 0.5 µM", "result": 99, "unit": "%"}]}
{"smiles": "O=S(=O)(c1ccccc1)N(Cc1ccccc1)c1sc2ccccc2c1Br", "note": "[Compound 175, N-(Benzyl)-N-(3-bromo-benzo[b]thiophen-2-yl)-benzenesulfonamide]", "values": [{"measurement": "IC50", "result": 4.6, "unit": "nM"}, {"measurement": "inhibition at 0.5 µM", "result": 97, "unit": "%"}]}
{"smiles": "COc1cc(CN(c2sc3ccccc3c2Br)S(=O)(=O)c2ccccc2)ccc1F", "note": "[Compound 176, N-(3-Bromo-benzo[b]thiophen-2-yl)-N-(4-fluoro-3-methoxy-benzyl)-benzenesulfonamide]", "values": [{"measurement": "IC50", "result": 2.8, "unit": "nM"}, {"measurement": "inhibition at 0.5 µM", "result": 97, "unit": "%"}]}
{"smiles": "Cc1ccccc1CN(c1sc2ccccc2c1Br)S(=O)(=O)c1ccccc1", "note": "[Compound 178, N-(3-Bromo-benzo[b]thiophen-2-yl)-N-(2-methyl-benzyl)-benzenesulfonamide]", "values": [{"measurement": "IC50", "result": 35.5, "unit": "nM"}, {"measurement": "inhibition at 0.5 µM", "result": 96, "unit": "%"}]}
{"smiles": "Cc1cccc(CN(c2sc3ccccc3c2Br)S(=O)(=O)c2ccccc2)c1", "note": "[Compound 179, N-(3-Bromo-benzo[b]thiophen-2-yl)-N-(3-methyl-benzyl)-benzenesulfonamide]", "values": [{"measurement": "IC50", "result": 3.6, "unit": "nM"}, {"measurement": "inhibition at 0.5 µM", "result": 98, "unit": "%"}]}
{"smiles": "COc1cccc(S(=O)(=O)N(Cc2ccc(F)c(C(F)(F)F)c2)c2sc3ccccc3c2Cl)c1", "note": "[Compound 180, N-(3-Chloro-benzo[b]thiophen-2-yl)-N-(4-fluoro-3-trifluoromethyl-benzyl)-3-methoxy-benzenesulfonamide]", "values": [{"measurement": "IC50", "result": 43, "unit": "nM"}, {"measurement": "inhibition at 0.2 µM", "result": 96, "unit": "%"}]}
